# In PubChem BioAssay (NCI):
#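 Method: 48-hour compound exposure of cells in 96-well plates, five concentrations, linear interpolation of endpoints. The concentration for full growth arrest is given as TGI.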
# Assays:
# Test in all cases: NCI-60 cell line screen, 48 h
# [1] = system: UACC-62 melanoma
# [2] = system: SK-MEL-5 melanoma
# [3] = system: MDA-MB-435
# [4] = system: SK-MEL-2 melanoma
# [5] = system: 786-0 renal
# [6] = system: OVCAR-4 ovarian
# [7] = system: HCT-15 colon
# [8] = system: A498 renal
# [9] = system: OVCAR-8 ovarian
# [10] = system: TK-10 renal
# [11] = system: A549 NSCLC
# [12] = system: U251 CNS
# [13] = system: HCT-116 colon
# [14] = system: NCI-H460 lung
# [15] = system: HS 578T breast
# [16] = system: MDA-N
# [17] = system: SW-620 colon
# [18] = system: SK-OV-3 ovarian
# [19] = system: EKVX NSCLC
# [20] = system: K-562 leukemia
# [21] = system: HL-60(TB) leukemia
# [22] = system: DU-145 prostate
# [23] = system: UO-31 renal
# [24] = system: MDA-MB-231 breast
# [25] = system: M14 melanoma
# [26] = system: RPMI-8226 leukemia
# [27] = system: HOP-92 NSCLC
# [28] = system: SNB-19 CNS
# [29] = system: NCI-H522 lung
# [30] = system: SR leukemia
# [31] = system: SNB-75 CNS
# [32] = system: SF-295 CNS
# [33] = system: MALME-3M melanoma
# [34] = system: UACC-257 melanoma
# [35] = system: NCI-H23 lung
# [36] = system: IGROV1 ovarian
# [37] = system: HT29 colon
# [38] = system: SN12C renal
# [39] = system: BT-549 breast
# [40] = system: KM12 colon
# [41] = system: SF-268 CNS
# [42] = system: CAKI-1 renal
# [43] = system: RXF 393 renal
# [44] = system: T-47D breast
# [45] = system: CCRF-CEM leukemia
# [46] = system: MOLT-4 leukemia
# [47] = system: NCI/ADR-RES ovarian
# [48] = system: COLO 205 colon
# [49] = system: SF-539 CNS
# [50] = system: PC-3 prostate
# [51] = system: NCI-H226 lung
# [52] = system: SK-MEL-28 melanoma
# [53] = system: ACHN renal
# [54] = system: OVCAR-5 ovarian
smiles,measurement,setting,value
NCCC1([N+](=O)[O-])C=CN=CC1 (centres undefined),TGI,[1],> 100 µM
same,TGI,[2],> 100 µM
same,TGI,[3],> 100 µM
same,TGI,[4],> 100 µM
same,TGI,[5],> 100 µM
same,TGI,[6],> 100 µM
same,TGI,[7],> 100 µM
same,TGI,[8],> 100 µM
same,TGI,[9],> 100 µM
same,TGI,[10],> 100 µM
same,TGI,[11],> 100 µM
same,TGI,[12],> 100 µM
same,TGI,[13],> 100 µM
same,TGI,[14],> 100 µM
same,TGI,[15],> 100 µM
same,TGI,[16],> 100 µM
same,TGI,[17],> 100 µM
same,TGI,[18],> 100 µM
same,TGI,[19],> 100 µM
same,TGI,[20],> 100 µM
same,TGI,[21],> 100 µM
same,TGI,[22],> 100 µM
same,TGI,[23],> 100 µM
same,TGI,[24],> 100 µM
same,TGI,[25],> 100 µM
same,TGI,[26],> 100 µM
same,TGI,[27],26.8 µM
same,TGI,[28],> 100 µM
same,TGI,[29],> 100 µM
same,TGI,[30],> 100 µM
same,TGI,[31],> 100 µM
same,TGI,[32],> 100 µM
same,TGI,[33],> 100 µM
same,TGI,[34],> 100 µM
same,TGI,[35],> 100 µM
same,TGI,[36],> 100 µM
same,TGI,[37],> 100 µM
same,TGI,[38],> 100 µM
same,TGI,[39],> 100 µM
same,TGI,[40],> 100 µM
same,TGI,[41],> 100 µM
same,TGI,[42],> 100 µM
same,TGI,[43],> 100 µM
same,TGI,[44],> 100 µM
same,TGI,[45],> 100 µM
same,TGI,[46],> 100 µM
same,TGI,[47],> 100 µM
same,TGI,[48],> 100 µM
same,TGI,[49],> 100 µM
same,TGI,[50],> 100 µM
same,TGI,[51],> 100 µM
same,TGI,[52],> 100 µM
same,TGI,[53],> 100 µM
same,TGI,[54],> 100 µM
